Where a SMILES comes first, the peptide text is derived from it.

Holding throughout (type): functional
In assay [1] the target is T1, Melanocortin receptor 3 (Mus musculus, UniProt P33033). As to the kind of experiment: Agonist activity at mouse MC3R by alphascreen cAMP assay.
The target of assay [2] is T2, Melanocortin receptor 4 (Mus musculus, UniProt P56450). As to the kind of experiment: Agonist activity at mouse MC4R by alphascreen cAMP assay.
In assay [3] the target is T2, Melanocortin receptor 4. Briefly: Antagonist activity at mouse MC4R assessed as antagonist potency by alphascreen cAMP assay. The settings on record: read-out: pA2 (converted).
Assay [4] concerns the target Melanocortin receptor 5 (Mus musculus) (UniProt P41149). As to the kind of experiment: Agonist activity at mouse MC5R at 100 uM by alphascreen cAMP assay relative to control.
In assay [5] the target is Melanocyte-stimulating hormone receptor (Mus musculus) (UniProt Q01727). As to the kind of experiment: Agonist activity at mouse MC1R at 100 uM by alphascreen cAMP assay relative to NDP-MSH. The settings on record: filed as partial agonist.
Assay [6] addresses Melanocortin receptor 3 (Mus musculus) (UniProt P33033). Briefly: Agonist activity at mouse MC3R at 100 uM by alphascreen cAMP assay relative to control.
The target of assay [7] is T1, Melanocortin receptor 3. Briefly: Antagonist activity at mouse MC3R assessed as antagonist potency by alphascreen cAMP assay. To be noted: read-out: pA2 (converted).
Assay [8] concerns the target Melanocortin receptor 5 (Mus musculus, UniProt P41149). Briefly: Agonist activity at mouse MC5R by alphascreen cAMP assay.
The target in assay [9] is Melanocyte-stimulating hormone receptor (Mus musculus, UniProt Q01727). As to the kind of experiment: Agonist activity at mouse MC1R by alphascreen cAMP assay.
Melanocyte-stimulating hormone receptor, sequence (Q01727 whole entry): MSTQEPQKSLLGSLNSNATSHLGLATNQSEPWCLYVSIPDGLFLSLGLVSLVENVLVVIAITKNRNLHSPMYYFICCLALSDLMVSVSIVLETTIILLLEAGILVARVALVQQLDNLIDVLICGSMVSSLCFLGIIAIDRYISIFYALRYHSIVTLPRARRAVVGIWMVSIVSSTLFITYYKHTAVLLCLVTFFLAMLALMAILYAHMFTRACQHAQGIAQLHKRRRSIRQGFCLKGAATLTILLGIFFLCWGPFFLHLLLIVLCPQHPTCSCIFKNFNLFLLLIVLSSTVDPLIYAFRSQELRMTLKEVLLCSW

T2 sequence (P56450 whole entry): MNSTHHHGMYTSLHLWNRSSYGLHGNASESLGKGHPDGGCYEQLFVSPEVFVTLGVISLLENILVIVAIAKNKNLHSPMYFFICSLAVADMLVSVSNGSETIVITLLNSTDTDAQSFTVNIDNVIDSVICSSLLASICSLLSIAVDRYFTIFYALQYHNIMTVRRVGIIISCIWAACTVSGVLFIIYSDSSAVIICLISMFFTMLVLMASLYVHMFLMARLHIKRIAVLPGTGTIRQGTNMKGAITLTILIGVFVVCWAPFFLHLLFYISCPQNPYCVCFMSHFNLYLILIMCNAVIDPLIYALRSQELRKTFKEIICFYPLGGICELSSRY
T1 sequence (P33033 whole entry): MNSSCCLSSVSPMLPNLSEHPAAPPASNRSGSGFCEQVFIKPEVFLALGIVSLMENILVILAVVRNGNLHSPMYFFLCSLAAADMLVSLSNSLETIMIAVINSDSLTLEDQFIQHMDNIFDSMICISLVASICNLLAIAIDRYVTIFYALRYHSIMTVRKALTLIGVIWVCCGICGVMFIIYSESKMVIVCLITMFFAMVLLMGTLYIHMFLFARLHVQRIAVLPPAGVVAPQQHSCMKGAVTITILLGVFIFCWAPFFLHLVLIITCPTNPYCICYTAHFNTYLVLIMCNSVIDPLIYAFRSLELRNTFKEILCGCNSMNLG
Melanocortin receptor 5, sequence (P41149 whole entry): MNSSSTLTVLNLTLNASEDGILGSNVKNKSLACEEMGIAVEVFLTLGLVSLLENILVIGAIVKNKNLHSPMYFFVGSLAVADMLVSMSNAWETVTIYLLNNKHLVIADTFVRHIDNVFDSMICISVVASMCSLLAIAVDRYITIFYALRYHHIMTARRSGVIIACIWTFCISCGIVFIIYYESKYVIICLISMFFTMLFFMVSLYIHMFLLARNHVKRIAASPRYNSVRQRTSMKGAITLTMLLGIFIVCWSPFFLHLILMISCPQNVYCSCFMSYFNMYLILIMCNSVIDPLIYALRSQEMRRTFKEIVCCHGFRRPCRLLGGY
Melanocortin receptor 5 (Mus musculus), sequence (P41149 whole entry): as above
Melanocyte-stimulating hormone receptor (Mus musculus), sequence (Q01727 whole entry, looked up): as the sequence (Q01727 whole entry) above
Melanocortin receptor 3 (Mus musculus), sequence (P33033 whole entry): as the sequence (P33033 whole entry) above

As to `C[C@@H]1NC(=O)[C@H](CC(N)=O)NC(=O)[C@H](Cc2ccccc2)NC(=O)CN(Cc2ccccc2)C(=O)[C@H](CCCNC(=N)N)NC(=O)[C@@H]2CCCN2C(=O)[C@H]2CCCN2C(=O)[C@H](Cc2ccccc2)NC1=O`, the EC50 in assay [1] and in assay [2] was > 100 µM each time. Besides, in [3], the Kb is > 3.16 µM. In [4] (filed as inverse agonist), this compound had an Activity of 10%.
For `C[C@@H]1NC(=O)[C@H](CC(N)=O)NC(=O)[C@H](Cc2ccccc2)NC(=O)[C@H](Cc2ccccc2)NC(=O)[C@H](CCCNC(=N)N)NC(=O)[C@@H]2CCCN2C(=O)[C@H]2CCCN2C(=O)CN(Cc2ccccc2)C1=O`, the figures for the Activity in assay [5] and in assay [6] (filed as agonist) were 85% and 60%, respectively. The Kb in [7] and in [3] was > 3.16 µM throughout. Moreover, the EC50 in assay [2] and in [8] was > 100 µM in each case.
Regarding `C[C@@H]1NC(=O)[C@H](CN)NC(=O)CN(Cc2ccccc2)C(=O)[C@H](Cc2ccccc2)NC(=O)[C@H](CCCNC(=N)N)NC(=O)[C@@H]2CCCN2C(=O)[C@H]2CCCN2C(=O)[C@H](Cc2ccccc2)NC1=O`, the Activity in assay [5] is 60%; in [4] (filed as inverse agonist) it was 10%. The EC50 in assay [1] and in assay [2] was > 100 µM in each case.
Turning to `C[C@@H]1NC(=O)CN(CCN)C(=O)[C@H](Cc2ccccc2)NC(=O)[C@H](Cc2ccccc2)NC(=O)[C@H](CCCNC(=N)N)NC(=O)[C@@H]2CCCN2C(=O)[C@H]2CCCN2C(=O)[C@H](Cc2ccccc2)NC1=O`, the Activity worked out at 60% in assay [5] and 10% in [4] (filed as inverse agonist). Also, the concentration giving a half-maximal response (EC50) in assay [1] and in [2] was > 100 µM in each case. Besides, the Kb was 0.126 µM in assay [7] and 0.00398 µM in assay [3].
With `C[C@@H]1NC(=O)[C@H](CN)NC(=O)[C@H](Cc2ccccc2)NC(=O)[C@H](Cc2ccccc2)NC(=O)CN(CCCNC(=N)N)C(=O)[C@@H]2CCCN2C(=O)[C@H]2CCCN2C(=O)[C@H](Cc2ccccc2)NC1=O` (HELM PEPTIDE1{[N=C(N)NCCCN(CC(=O)[*:2])[*:1]].F.F.[NC[C@H](N[*:1])C(=O)[*:2]].A.F.[dP].P}$PEPTIDE1,PEPTIDE1,1:R1-8:R2$$$V2.0), the concentration giving a half-maximal response (EC50) in assay [9], in [1], in assay [2] and in [8] was > 100 µM throughout. Also, the values for the Kb in assay [7] and in [3] were 1.26 µM and > 3.16 µM, respectively.
As to `C[C@@H]1NC(=O)[C@H](CN)NC(=O)[C@H](Cc2ccccc2)NC(=O)[C@H](Cc2ccccc2)NC(=O)[C@H](CCCNC(=N)N)NC(=O)[C@@H]2CCCN2C(=O)[C@H]2CCCN2C(=O)CN(Cc2ccccc2)C1=O`, the EC50 in assay [9], in [1] and in [2] was > 100 µM in each case. For the same compound, the values for the Kb in assay [7] and in assay [3] were 3.16 µM and 0.251 µM, respectively. The compound also registered an Activity in [4] (filed as inverse agonist) of 10%.
Regarding `C[C@@H]1NC(=O)[C@H](CC(N)=O)NC(=O)CN(Cc2ccccc2)C(=O)[C@H](Cc2ccccc2)NC(=O)[C@H](CCCNC(=N)N)NC(=O)[C@@H]2CCCN2C(=O)[C@H]2CCCN2C(=O)[C@H](Cc2ccccc2)NC1=O`, the figures for the Activity in [5] and in assay [4] (filed as inverse agonist) were 70% and 10%, respectively. Besides, the EC50 in assay [1] and in [2] was > 100 µM in each case.
In the case of `C[C@@H]1NC(=O)[C@H](CN)NC(=O)[C@H](Cc2ccccc2)NC(=O)CN(Cc2ccccc2)C(=O)[C@H](CCCNC(=N)N)NC(=O)[C@@H]2CCCN2C(=O)[C@H]2CCCN2C(=O)[C@H](Cc2ccccc2)NC1=O`, the Activity in [5] stood at 80%; in assay [4] (filed as partial agonist) it was 70%. The concentration for a half-maximal effect (EC50) in [1] and in assay [2] was > 100 µM in each case.
For the compound `C[C@@H]1NC(=O)[C@H](CN)NC(=O)[C@H](Cc2ccccc2)NC(=O)[C@H](Cc2ccccc2)NC(=O)[C@H](CCCNC(=N)N)NC(=O)[C@@H]2CCCN2C(=O)[C@H]2CCCN2C(=O)[C@H](Cc2ccccc2)NC1=O`, the Activity in [6] is 20%; in assay [4] (filed as inverse agonist), 10%.
Regarding `CN1CC(=O)N[C@@H](Cc2ccccc2)C(=O)N2CCC[C@@H]2C(=O)N2CCC[C@H]2C(=O)N[C@@H](CCCNC(=N)N)C(=O)N[C@@H](Cc2ccccc2)C(=O)N[C@@H](Cc2ccccc2)C(=O)N[C@@H](CC(N)=O)C1=O` (HELM PEPTIDE1{P.R.F.F.N.[Sar].F.[dP]}$PEPTIDE1,PEPTIDE1,1:R1-8:R2$$$V2.0), the EC50 in assay [1], in assay [2] and in assay [8] was > 100 µM in each case. For the same compound, the Kb in assay [7] and in [3] was > 3.16 µM each time.
On to `C[C@@H]1NC(=O)[C@H](CC(N)=O)NC(=O)[C@H](Cc2ccccc2)NC(=O)[C@H](Cc2ccccc2)NC(=O)CN(CCCNC(=N)N)C(=O)[C@@H]2CCCN2C(=O)[C@H]2CCCN2C(=O)[C@H](Cc2ccccc2)NC1=O` (HELM PEPTIDE1{P.[N=C(N)NCCCN(CC(=O)[*:2])[*:1]].F.F.N.A.F.[dP]}$PEPTIDE1,PEPTIDE1,1:R1-8:R2$$$V2.0), for which the Activity in assay [5] was 50%. Further, the EC50 in assay [1], in [2] and in assay [8] was > 100 µM throughout. The Kb in assay [7] and in [3] was > 3.16 µM each time.
For `CN1CC(=O)N[C@@H](Cc2ccccc2)C(=O)N2CCC[C@@H]2C(=O)N2CCC[C@H]2C(=O)N[C@@H](CCCNC(=N)N)C(=O)N[C@@H](Cc2ccccc2)C(=O)N[C@@H](Cc2ccccc2)C(=O)N[C@@H](CN)C1=O`, the EC50 in assay [9], in assay [1], in assay [2] and in [8] was > 100 µM each time. Besides, the Kb is 2.51 µM in assay [7] and 0.794 µM in assay [3].
